In paper PMC9784828, “Antimicrobial Activity of Peptide-Coupled Antisense Peptide Nucleic Acids in Streptococcus pneumoniae” (Microbiology Spectrum, 2022):

Legend:
S. pneumoniae TIGR4 = assay: Bacterial killing assay (CFU/mL reduction after 6 h); format: cell-based, Streptococcus pneumoniae; settings: for Δlog CFU reduction in S. pneumoniae strains: TIGR4: log CFU reduction CPP-antisense PNA – log CFU reduction CPP-scPNA; for Reduction of bacterial CFU/mL compared to untreated control (in words): concentration range 2.5 to 20 μM, n = 5
Procedure: The impact of different CPPs on the efficacy of antisense PNAs targeting gyrA and rpoB in S. pneumoniae was tested using an in vitro killing assay ([25]). S. pneumoniae strains were incubated for 6 h with CPP-antisense PNA conjugates. We determined the reduction of bacterial CFU/mL caused by different CPP-coupled antisense PNA constructs compared to an untreated control. Three different CPPs were tested: HIV-1 TAT (TAT), oligolysin (K8), and (RXR)4XB (Table 1). Concentration-dependent bactericidal activity was investigated by treatment of S. pneumoniae TIGR4 in a CPP-antisense PNA conjugate concentration range of 2.5 to 20 μM (Fig. 1).
(§1) After culturing S. pneumoniae strains in BHI, D39 and 19F were diluted to approximately 10^5 CFU/mL in phosphate-buffered saline (PBS):BHI (93%:7%), while TIGR4 was diluted to approximately 10^5 CFU/mL in PBS:BHI (96%:4%). Next, 450-μL volumes of the respective bacterial suspensions, containing approximately 0.5× 10^5 CFU, were transferred to 2-mL reaction tubes. A 50-μL volume of PNA solution was added to a final PNA concentration of 1 to 20 μM or as indicated. Fifty μL H2O served as a mock control. The reaction tubes were incubated for 6 h at 37°C and 7 rpm (Rotor SB3; Stuart, Staffordshire, United Kingdom). The concentration of CPP-PNA that reduced CFU/mL by 50% after 6 h of incubation compared to an untreated control (IC50) was calculated by nonlinear regression analysis using GraphPad Prism software (GraphPad Software, San Diego, CA).

S. pneumoniae strain 19F = assay: as above; format: cell-based, Streptococcus pneumoniae; settings: log CFU reduction CPP-antisense PNA – log CFU reduction CPP-scPNA
Procedure: Compared to S. pneumoniae strains TIGR4 and D39, strain 19F was clearly affected by incubation with CPP-coupled scPNAs (Fig. S2). Specific antimicrobial activity of TAT-antisense PNAs was low, regardless of the target gene (Fig. S2, Table 2).
as §1

[1] = system: G. mellonella larvae infected with S. pneumoniae TIGR4; assay: G. mellonella infection model, larval survival; format: in vivo, Galleria mellonella; settings: 10 nmol CPP-PNA/larva; for Effect on survival of infected larvae (in words): data not shown
Procedure: Antimicrobial efficiency of CPP-antisense PNA conjugates was evaluated in vivo employing a G. mellonella infection and treatment model ([22], [28]). Larvae were infected with S. pneumoniae strain TIGR4 and subsequently treated with 10 nmol CPP-anti-gyrA PNAs. Treatment with levofloxacin served as a positive control. Larval survival was observed over 7 days.
Larvae of the greater wax moth (G. mellonella) were obtained from Bugs-International GmbH (Irsingen/Unterfeld, Germany). For infection experiments, S. pneumoniae TIGR4 was grown for 7 h in BHI, washed twice in a 0.9% NaCl solution, and suspended in 0.9% NaCl to a final concentration of approximately 1 × 10^8 CFU/mL. Larvae weighing 150 to 200 mg were infected with 1 × 10^6 to 3 × 10^6 CFU/larva. Bacteria were injected into the hemocoel of the larvae between the last two pairs of prolegs using a microapplicator (World Precision Instruments, LLC, Sarasota, FL) and a fine-dosage syringe (Omnican-F, 0.01 to 1 mL, 0.30 × 12 mm; B. Braun AG, Melsungen, Germany). As mock control, 0.9% NaCl (PNA experiment) or 0.9% NaCl/3% DMSO (levofloxacin experiment) was injected. For CPP-PNA treatment, larvae were injected 30 min postinfection with 10 nmol CPP-PNA/larva. For levofloxacin treatment, larvae were injected 30 min postinfection with 1 or 10 μg levofloxacin/larva. Larvae were incubated for 7 days, and survival was monitored daily ([22]).

S. pneumoniae strain D39 = assay: Bacterial killing assay (CFU/mL reduction after 6 h); format: cell-based, Streptococcus pneumoniae; settings: log CFU reduction CPP-antisense PNA – log CFU reduction CPP-scPNA
Procedure: Similar results were obtained with S. pneumoniae strain D39 (Fig. S1). (RXR)4XB-coupled antisense PNAs were more efficient than TAT-coupled antisense PNAs. […] The difference between the target genes anti-gyrA and anti-rpoB was less pronounced in D39 than in TIGR4 (Table 2).
as §1

Substance | Δlog CFU reduction in S. pneumoniae strains: TIGR4 (S. pneumoniae TIGR4; CPNA 2.5 μM, 6 h) | Δlog CFU reduction in S. pneumoniae strains: TIGR4 (S. pneumoniae TIGR4; CPNA 5 μM, 6 h) | Δlog CFU reduction in S. pneumoniae strains: TIGR4 (S. pneumoniae TIGR4; CPNA 10 μM, 6 h) | Δlog CFU reduction in S. pneumoniae strains: TIGR4 (S. pneumoniae TIGR4; CPNA 20 μM, 6 h) | Δlog CFU reduction in S. pneumoniae strains: TIGR4 (S. pneumoniae TIGR4; CPNA 20 μM, 6 h, listed as (RXR)4XB-anti-rpoB) | Reduction of bacterial CFU/mL compared to untreated control (in words) (S. pneumoniae TIGR4; TIGR4, 6 h) | Δlog CFU reduction in S. pneumoniae strains: 19F (S. pneumoniae strain 19F; CPNA 2.5 μM) | Δlog CFU reduction in S. pneumoniae strains: 19F (S. pneumoniae strain 19F; CPNA 5 μM) | Δlog CFU reduction in S. pneumoniae strains: 19F (S. pneumoniae strain 19F; CPNA 10 μM) | Δlog CFU reduction in S. pneumoniae strains: 19F (S. pneumoniae strain 19F; CPNA 20 μM) | Effect on survival of infected larvae (in words) [1] | Δlog CFU reduction in S. pneumoniae strains: D39 (S. pneumoniae strain D39; CPNA 2.5 μM) | Δlog CFU reduction in S. pneumoniae strains: D39 (S. pneumoniae strain D39; CPNA 5 μM) | Δlog CFU reduction in S. pneumoniae strains: D39 (S. pneumoniae strain D39; CPNA 10 μM) | Δlog CFU reduction in S. pneumoniae strains: D39 (S. pneumoniae strain D39; CPNA 20 μM) | Δlog CFU reduction in S. pneumoniae strains: TIGR4 (S. pneumoniae TIGR4; CPNA 10 μM, 6 h, listed as (RXR)4XB-anti-gyrA) | log CFU reduction (S. pneumoniae TIGR4; TIGR4, 6 h, 20 μM CPP-PNA) | IC50 (S. pneumoniae TIGR4; TIGR4, 6 h incubation vs untreated control, nonlinear regression, read-out: 50% inhibitory concentration (IC50): concentration that reduced CFU/mL by 50%) | Δlog CFU reduction in S. pneumoniae strains: 19F (S. pneumoniae strain 19F; CPNA 10 μM, listed as (RXR)4XB-anti-gyrA) | Increase of survival rate ([1]; 30 min postinfection, 7 days, n = 60)
RXRRXRRXRRXRXB-eg-ctgccaagatga [(RXR)4XB-anti-rpoB PNA, (RXR)4XB peptide coupled to antisense PNA against rpoB] | 0 | 0.40 | 0.66 | ≥ 1 | 1.58 | significant decreases | 0.18 | 0.17 | 0.16 | 0.56 | did not increase survival | 0 | 0.16 | 0.61 | 1.98 | – | – | – | – | –
GRKKRRQRRRYK-eg-ctgccaagatga [TAT-anti-rpoB PNA, HIV-1 TAT (48–57) peptide coupled to antisense PNA against S. pneumoniae rpoB] | 0 | 0 | 0 | 0 | – | No reduction of bacterial counts | 0.05 | 0.05 | 0 | 0 | did not increase survival | 0 | 0.11 | 0.16 | 0.51 | – | – | – | – | –
RXRRXRRXRRXRXB-eg-tgcattaata [(RXR)4XB-anti-gyrA PNA, (RXR)4XB peptide coupled to antisense PNA against gyrA] | 0 | 0.98 | ≥ 1 | 3.18 | – | significant decreases | 0.72 | 1.20 | ≥ 1 | 1.48 | – | 0 | 0 | 0.42 | 2.23 | 1.80 | 4 | 0.63 µM | 1.21 | 22%
